# What was measured:
# skin = details: versus menthol; cited from earlier work
# mouth = details: versus menthol; cited from earlier work
# eyes of human patients [1] = assay: Creation of ocular discomfort after topical application to the eyes of human patients; format: in vivo
# Protocol: (§1) Compositions containing the cooling agents WS-3 and WS-23 in the vehicle described in Example 1 were prepared. The compositions were evaluated relative to the ability to produce a cooling sensation when topically applied to the eyes of human patients. The compositions were also evaluated with respect to the creation of ocular discomfort.
# eyes of human patients [2] = assay: Cooling sensation of compositions topically applied to the eyes of human patients; format: in vivo; details: for ability to produce a cooling sensation: human patients
# Protocol: as §1
# [3] = WS-3 at 2 ppm to 5 ppm in the vehicle of Example 1, topical ocular
# [4] = ophthalmic composition, ocular cooling
# [5] = WS-23 at 10 ppm to 20 ppm in the vehicle of Example 1, topical ocular
smiles,measurement,setting,value
CC1=C(N2CCCC2)C(=O)OC1 [4-methyl-3-(1-pyrrolididinyl)-2[5H]-furanone],"cooling power relative to menthol, on the skin",skin,over 500 times
same,"cooling power relative to menthol, in the mouth",mouth,thirty-five
"CCNC(=O)C1CC(C)CCC1C(C)C (centres unmarked) [WS-3, Cyclohexanecarboxamide, N-ethyl-5-methyl-2-(1-methylethyl)]",ocular discomfort / tolerability,eyes of human patients [1]; [3],comfortable and well tolerated
same,ability to produce a cooling sensation,eyes of human patients [2]; [3],refreshing
same,optimal concentration,eyes of human patients [2]; [4],1 to 5 PPM
"CNC(=O)C(C)(C(C)C)C(C)C [WS-23, N,2,3-Trimethyl-2-isopropylbutamide]",ocular discomfort,eyes of human patients [1]; [5],comfortable
same,ability to produce a cooling sensation,eyes of human patients [2]; [5],produced a cooling effect
same,concentration at which most effective,eyes of human patients [2]; [4],10 to 20 ppm

# Source: US20050137166A1, “Use of cooling agents to relieve mild ocular irritation and enhance comfort” (Alcon, Inc., priority 2003, published 2005)
